From PubChem BioAssay AID179 (DTP/NCI, 2004)
Activity calls are given as the source filed them.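 Rule for the calls: active = compounds giving half or more protection of infected cells from virus-caused growth loss, again on retest; inactive = the rest.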

System: CEM cells HIV-1 protection, formazan growth assay
Assay: NCI AIDS Antiviral Assay
Settings: for IC50: measured here: growth of uninfected CEM cells
Summary of the method: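 Five concentrations of each compound were applied to infected and uninfected human CEM cells. Protection from HIV-1 was judged from growth measured with a soluble formazan assay.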

## COc1ccc(CN=C(N)N)c2ccccc12
  EC50: > 200 µM
  IC50: 5.13 µM

## COC(=O)C1CCC[C@H]2C(CO)=C(C)C(=O)[C@@H]12 (stereo partly drawn)
  EC50: 182 µM
  IC50: > 200 µM

## S=c1ncc2c([nH]1)C1c3ccccc3C2c2ccccc21
  EC50: > 200 µM
  IC50: 120 µM

## C1=Nc2ccc(cc2)N=Cc2ccc(cc2)OCc2cccc(n2)COc2ccc1cc2
  EC50: > 100 µM
  IC50: > 100 µM

## CC(C)[C@](O)(C(=O)OCC1=CC[N+]2([O-])CC[C@@H](O)[C@@H]12)[C@H](C)O (stereo partly drawn)
  EC50: > 398 µM
  IC50: > 398 µM

## COc1cc(Cc2ccc3c(c2C#N)N(C)c2ccccc2S3)cc(OC)c1OC
  EC50: > 200 µM
  IC50: 3.63 µM

## Cc1oc(N)c(S(=O)(=O)c2ccc(Cl)cc2)c1C
  EC50: > 200 µM
  IC50: 34.7 µM

## C/C(CCc1ccccc1)=N\Nc1ccc([N+](=O)[O-])cc1[N+](=O)[O-]
  EC50: > 21.9 µM
  IC50: > 21.9 µM

## COC(=O)[C@@H]1Cc2c3n(c4ccccc24)C(=O)CCC3N1C (stereo partly drawn)
  EC50: > 417 µM
  IC50: 295 µM

## C#CCCCCCCCCC/C=C1\C[C@H](O)COC1=O
  EC50: > 245 µM
  IC50: 46.8 µM

## O=C(NC(=Nc1ccccc1)SCSC(=Nc1ccccc1)NC(=O)c1ccccc1Cl)c1ccccc1Cl
  EC50: > 200 µM
  IC50: 30.9 µM

## CCC1COS(=O)(=O)CS(=O)(=O)O1 (stereo not drawn)
  EC50: > 1070 µM
  IC50: 1020 µM

## O=[N+]([O-])c1ccccc1C=NC12CC3CC(CC(C3)C1)C2
  EC50: > 115 µM
  IC50: > 115 µM

## CCOC(=O)CC(NCCSS(=O)(=O)O)C(=O)OCC (stereo not drawn)
  EC50: > 200 µM
  IC50: > 200 µM

## C=C1CC(c2ccc(S(=O)(=O)N3CCOCC3)cc2)OC1=O (stereo not drawn)
  EC50: > 200 µM
  IC50: 2.82 µM

## CC#CC(O)(C(=O)OC1CCCN(C)C1)C1=CC=CCC1 (stereo not drawn)
  EC50: > 200 µM
  IC50: > 200 µM

## C=[N+]([O-])CC[C@@]1(O)C[C@H](n2ccc(=O)[nH]c2=O)O[C@@H]1CO[Si](C)(C)C(C)(C)C
  EC50: > 200 µM
  IC50: 44.7 µM

## CNC(=O)NC1ON=C(c2ccccc2)C1C(=O)NC (stereo not drawn)
  EC50: > 200 µM
  IC50: 182 µM

## CCCCCCCCCCNC(=S)OCCCC
  outcome: inactive

## COC12C=CC(CC1)C(C)(C)C2=O (stereo not drawn)
  EC50: > 200 µM
  IC50: > 200 µM

## Cn1c(=O)c2ccc(-c3ccc(Br)cc3)nc2n(C)c1=O
  outcome: inactive

## COC1CCC(=O)N1CC/C=C(/Br)[Si](C)(C)C (stereo not drawn)
  outcome: inactive

## N#C/C(=C/c1ccccc1)c1ccccc1
  EC50: > 200 µM
  IC50: 39.8 µM

## O=C(N/C(=C\c1ccccc1O)C1NC(Cc2c[nH]c3ccccc23)C(=O)O1)c1ccccc1 (stereo not drawn)
  EC50: > 100 µM
  IC50: 74.1 µM

## Cc1ccc(N(C(=O)Nc2ccc(F)c(Cl)c2)C2=NCC(C)S2)cc1 (stereo not drawn)
  EC50: > 200 µM
  IC50: 186 µM

## C[C@]12CCC(=O)C=C1CC[C@@H]1C2CC[C@@]2(C)C1CC[C@@H]2OC(=O)C12OC1CCC2=O (stereo partly drawn)
  EC50: > 200 µM
  IC50: 10.7 µM

## O=S(=O)(c1ccccc1)N1CC2C3C=CC(C3)C2C1 (stereo not drawn)
  EC50: > 200 µM
  IC50: 145 µM

## Cn1cnc([N+](=O)[O-])c1SC1=NCCS1
  EC50: > 1020 µM
  IC50: 7.08 µM

## COc1ccc(-c2cc(-c3ccco3)c(C#N)c(=O)n2C2OC(OC(=O)c3ccccc3)C(OC(=O)c3ccccc3)C2OC(=O)c2ccccc2)cc1 (stereo not drawn)
  EC50: > 7.24 µM
  IC50: > 7.24 µM

## CC(C)(CCCCC(C)(C)C1NC(=O)N1)C1NC(=O)N1
  EC50: > 200 µM
  IC50: > 200 µM

## Cc1cc([N+](=O)[O-])c(=O)[nH]c1C
  EC50: > 1480 µM
  IC50: 832 µM

## NC1=C(Br)C(=O)c2ncccc2C1=O
  outcome: inactive

## CCOC(=O)C1=C(O)c2c(sc(C)c2C)N(S(=O)(=O)c2ccc(C)cc2)CC1
  EC50: > 200 µM
  IC50: 52.5 µM

## COc1cc2c(cc1OC)[C@H]1C(COC(=O)c3ccccc3)CSC(=Nc3ccccc3)N1CC2 (stereo partly drawn)
  EC50: > 10.2 µM
  IC50: > 10.2 µM

## CC1CC(=O)N2CCCNC2=C1C#N (stereo not drawn)
  EC50: > 200 µM
  IC50: > 200 µM

## CO/C(=N\N=C\c1cccc(Cl)c1)c1ccncc1
  EC50: > 132 µM
  IC50: 83.2 µM
